Measurements reported in US5952307A, “Basic α-aminoalkylphosphonate derivatives” (priority 1997, dated 1999).

Experiments:
Type in all cases: biochemical
human granzyme A = molecular target: T1, human granzyme A (Homo sapiens, UniProt P12544); experiment: Inactivation rate of human granzyme A, incubation method; conditions: Table I; 0.1M Hepes, 0.01M CaCl2 pH 7.5, 25° C., 7.6% DMSO, substrate Z--Arg--SBzl
T1 sequence (P12544 29-262): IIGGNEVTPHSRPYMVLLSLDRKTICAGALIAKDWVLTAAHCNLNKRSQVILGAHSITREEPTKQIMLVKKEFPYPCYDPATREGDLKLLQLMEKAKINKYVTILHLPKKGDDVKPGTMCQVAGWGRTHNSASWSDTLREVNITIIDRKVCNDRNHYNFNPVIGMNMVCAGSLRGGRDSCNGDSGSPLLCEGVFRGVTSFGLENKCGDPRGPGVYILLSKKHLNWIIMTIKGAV
Protocol: (§1) Inactivation rates of serine proteases by aryl diesters of peptidyl derivatives of α-aminoalkylphosphonates were measured by the incubation method. An aliquot of inhibitor (25 or 50 μl) in Me2 SO was added to a buffered enzyme solution (0.01-2.3 μM) to initiate the inactivation. Aliquots (50 μl) were withdrawn at various intervals and the residual enzymatic activity was measured. Me2 SO concentration in the reaction mixture was 8-12% (v/v). A 0.1 M HEPES, 0.01 M CaCl2, pH 7.5 buffer was utilized for trypsin and trypsin-like enzymes. A 0.1 M HEPES, 0.5 M NaCl, pH 7.5, was utilized for the other serine proteases. Peptide thioesters or peptide nitroanilides with the appropriate sequences were used as substrates for various serine proteases. All peptide thioesters hydrolysis rates were measured with the assay mixture containing 4,4'-dithiodipyridine {ε324 =19800 M^-1 cm^-1; Grasetti & Murray, Arch. Biochem. Biophys. 1967, 119, 41-48}. Peptide 4-nitroanilide hydrolysis was measured at 410 nm {ε410 =8800 M^-1 cm^-1; Erlanger et al., Arch. Biochem. Biophys. 1961, 95, 271-278}. First order inactivation rate constants (Kobs) were obtained from plots of In vt /vo vs time, and the correlation coefficients were greater then 0.98.
(§2) ^a Inhibition constants were measured in 0.1M Hepes, 0.01M CaCl2
(§3) pH 7.5 for trypsin, granzymes A, and K, and in 0.1M Hepes, 10% glycerol,
(§4) 10 mM heparin, pH 7.5 for mast cell tryptase, and at 25° C. The
(§5) reaction mixtures contained 2% DMSO for trypsin, 7.6% for granzyme A, and
(§6) 7.1% for granzyme K and tryptase. The substrate was Z--Arg--SBzl for
(§7) granzymes and trypsin, and Z--Arg--SBzl or Z--Lys--SBzl for tryptase in
(§8) the presence of DTNB. The inhibitor # concentration ranged from 0.001 to
(§9) ^b NI, no inhibition after 25 min of incubation with enzyme.

rat granzyme K = molecular target: T2, rat granzyme K (Rattus norvegicus, UniProt P49864); experiment: Inactivation rate of rat granzyme K, incubation method; conditions: Table I; 0.1M Hepes, 0.01M CaCl2 pH 7.5, 25° C., 7.1% DMSO, substrate Z--Arg--SBzl; NI = no inhibition after 25 min of incubation
T2 sequence (P49864 26-258): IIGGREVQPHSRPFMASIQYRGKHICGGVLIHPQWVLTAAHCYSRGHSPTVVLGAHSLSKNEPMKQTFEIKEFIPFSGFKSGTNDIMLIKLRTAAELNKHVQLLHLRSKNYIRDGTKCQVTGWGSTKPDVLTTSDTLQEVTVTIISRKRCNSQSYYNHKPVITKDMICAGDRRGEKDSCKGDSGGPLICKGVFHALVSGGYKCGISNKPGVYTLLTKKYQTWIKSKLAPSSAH
Protocol: as §1, §2, §3, §4, §5, §6, §7, §8, §9

mast cell tryptase = mast cell tryptase (Homo sapiens, UniProt Q15661); experiment: Inactivation rate of mast cell tryptase, incubation method; conditions: for kobsd /[I] mast cell tryptase: 0.1M Hepes, 10% glycerol, 10 mM heparin, pH 7.5, 25° C., 7.1% DMSO, NI = no inhibition after 25 min of incubation; for kobs /[I] mast cell tryptase: 0.07 μM tryptase, 20-66 μM inhibitor, Hepes pH 7.5, heparin, 9% glycerol, 8% DMSO, 25° C., NI = no inhibition
Chain of mast cell tryptase (Q15661 31-275): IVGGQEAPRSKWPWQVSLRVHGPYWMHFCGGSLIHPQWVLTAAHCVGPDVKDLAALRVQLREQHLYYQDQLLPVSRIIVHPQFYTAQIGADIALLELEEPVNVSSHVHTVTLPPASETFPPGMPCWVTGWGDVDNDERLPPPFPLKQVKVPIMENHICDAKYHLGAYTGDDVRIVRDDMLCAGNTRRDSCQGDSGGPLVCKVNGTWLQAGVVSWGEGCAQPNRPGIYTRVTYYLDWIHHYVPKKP
Protocol: as §1, §2, §3, §4, §5, §6, §7, §8, §9
(§10) ^a Enzyme was incubated with the inhibitor in 250 μL of the proper
(§11) containing 428 mM NaCl and 8% DMSO; 0.07 μM tryptase, 20-66 μM
inhibitor # in an mM Hepes, pH 7.5 buffer containing 8 mM heparin, 166 m
NaCl, 0.8 mM Mes, 9% glycerol and 8% DMSO; 0.42 μM factor Xa, 66 μM
(§12) DMSO. Aliquots of 25 μL were withdrawn at various intervals and the
(§13) residual enzymatic activity was measured as described in experimental
(§14) section. The kobs values were calculated from pseudofirst-order
(§15) ^a Enzyme (0.06-0.5 μM) was incubated with the inhibitor (0.25-42
(§16) μM) in 250 μL of the proper buffer containing 9% DMSO at 25°
(§17) C. The final inhibition reaction mixtures are given in the footnote to
(§18) Table 1. Aliquots of 25 μL were withdrawn at various intervals and the […]

bovine trypsin = molecular target: T3, bovine trypsin (Bos taurus, UniProt P00760); experiment: Inactivation rate of bovine trypsin, incubation method; conditions: for kobsd /[I] bovine trypsin: Table I, 0.1M Hepes, 0.01M CaCl2 pH 7.5, 25° C., 2% DMSO, substrate Z--Arg--SBzl, NI = no inhibition after 25 min; for kobs /[I] bovine trypsin: Table II, 0.13 μM trypsin, 0.25-42 μM inhibitor, 80 mM Hepes pH 7.5, 1 mM CaCl2, 8% DMSO, 25° C., NI = no inhibition
T3 sequence (P00760 24-246): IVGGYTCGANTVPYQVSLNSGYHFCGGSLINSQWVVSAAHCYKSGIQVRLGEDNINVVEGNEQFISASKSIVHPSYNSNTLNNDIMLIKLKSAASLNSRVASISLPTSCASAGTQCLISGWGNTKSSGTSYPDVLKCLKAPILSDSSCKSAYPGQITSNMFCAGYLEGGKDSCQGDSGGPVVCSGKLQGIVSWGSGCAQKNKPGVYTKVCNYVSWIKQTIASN
Protocol: as §1, §2, §3, §4, §5, §6, §7, §8, §9, §10
(§19) buffer at 25° C. Specifically, the inhibition reation mixtures wer
composed of: 0.13 μM trypsin, 0.25-42 μM inhibitor in an 80 mM
(§20) Hepes, pH 7.5 buffer containing 1 mM CaCl2 and 8% DMSO; 0.07 μM
as §12, §13, §14, §15, §16, §17, §18

human thrombin = molecular target: T4, human thrombin (Homo sapiens, UniProt P00734); conditions: Table II; for kobs /[I] human thrombin: 0.07 μM thrombin, 0.25-42 μM inhibitor, 80 mM Hepes pH 7.5, 428 mM NaCl, 8% DMSO, 25° C., NI = no inhibition
T4 construct: bovine trypsin, human thrombin
Protocol: as §1, with “271-278}.” for “271-278}. First order inactivation rate constants (Kobs) were obtained from plots of In vt /vo vs time, and the correlation coefficients were greater then 0.98.”
as §10, §19, §20
thrombin, 0.25-42 μM inhibitor in an 80 mM Hepes, pH 7.5 buffer
as §11, §12, §13, §14, §15, §16, §17, §18

Structure (SMILES)	kobsd /[I] human granzyme A (human granzyme A) [M⁻¹ s⁻¹]	kobsd /[I] rat granzyme K (rat granzyme K) [M⁻¹ s⁻¹]	kobsd /[I] mast cell tryptase (mast cell tryptase; Table I) [M⁻¹ s⁻¹]	kobs /[I] mast cell tryptase (mast cell tryptase; Table II) [M⁻¹ s⁻¹]	kobsd /[I] bovine trypsin (bovine trypsin) [M⁻¹ s⁻¹]	kobs /[I] bovine trypsin (bovine trypsin)	kobs /[I] human thrombin (human thrombin)	% Inh mast cell tryptase (mast cell tryptase; Table I, printed in the kobsd/[I] column) [%]	% Inh mast cell tryptase (mast cell tryptase; Table II, printed in the kobs/[I] column) [%]	% Inh human thrombin (human thrombin; printed in the kobs/[I] column) [%]
CC(C)C(NC(=O)OCc1ccccc1)C(=O)NC(c1ccc(C(=N)N)cc1)P(=O)(Oc1ccccc1)Oc1ccccc1 (mixture of isomers) [Cbz--Val-(4-AmPhGly)^P (OPh)2]	6.7 ± 0.1	0.7 ± 0.04	21.2 ± 0.2	21.2 ± 0.2	41 ± 3	18 ± 2 M⁻¹ s⁻¹	5.5 ± 0.4 M⁻¹ s⁻¹	–	–	–
CC(NC(=O)C(Cc1ccccc1)NC(=O)OCc1ccccc1)C(=O)NC(c1ccc(C(=N)N)cc1)P(=O)(Oc1ccccc1)Oc1ccccc1 (mixture of isomers) [Cbz--Phe--Ala-(4-AmPhGly)^P (OPh)2]	1770 ± 13	4.2 ± 0.3	4	4.0 ± 0.3	3010 ± 318	3,010 ± 318 M^-1 s^-1	1,150 ± 88 M^-1 s^-1	–	–	–
N=C(N)c1ccc(C(NC(=O)C2CCCN2C(=O)CCc2ccccc2)P(=O)(Oc2ccccc2)Oc2ccccc2)cc1 (centres unmarked) [3-Phenylpropanoyl-Pro-(4-AmPhGly)^P (OPh)2]	1510 ± 217	50 ± 2	0.4	0.4	1520 ± 27	1,520 ± 27 M^-1 s^-1	6,070 ± 68 M^-1 s^-1	–	–	–
C[C@H](NC(=O)CCC(=O)O)C(=O)N[C@@H](C)C(=O)NC(c1ccc(C(=N)N)cc1)P(=O)(Oc1ccccc1)Oc1ccccc1 (some centres unmarked) [Suc--Ala--Ala-(4-AmPhGly)^P (OPh)2]	260 ± 15	0.3 ± 0.01	0.7	0.7	640 ± 36	640 ± 36 M⁻¹ s⁻¹	2 M⁻¹ s⁻¹	–	–	–
CC(C)(C)OC(=O)N[C@H](Cc1ccccc1)C(=O)N1CCC[C@H]1C(=O)NC(c1ccc(C(=N)N)cc1)P(=O)(Oc1ccccc1)Oc1ccccc1.Cl (stereo partly drawn) [Boc--D--Phe--Pro-(4-AmPhGly)^P (OPh)2, Diphenyl N-(Boc-D-Phe-Pro)amino(4-amidinophenyl)methanephosphonate hydrochloride]	170	56 ± 2	0.4	–	130	2,200 M^-1 s^-1	11,000 M^-1 s^-1	–	–	–
Cl.N=C(N)c1ccc(C(NC(=O)[C@@H]2CCCN2C(=O)c2cccc(Oc3ccccc3)c2)P(=O)(Oc2ccccc2)Oc2ccccc2)cc1 (some centres unmarked) [Diphenyl N-(N-(3-Phenoxybenzoylprolyl))amino(4-amidinophenyl)methanephosphonate Hydrochloride]	330 ± 58	–	–	–	4080 ± 32	4,080 ± 32 M^-1 s^-1	1,340 ± 225 M^-1 s^-1	7	7	–
C[C@H](NC(=O)[C@H](CC(=O)OC(C)(C)C)NC(=O)OCc1ccccc1)C(=O)NC(c1ccc(C(=N)N)cc1)P(=O)(Oc1ccccc1)Oc1ccccc1 (some centres unmarked) [Cbz--Asp(O-t-Bu)--Ala-(4-AmPhGly)^P (OPh)2]	280 ± 5	–	3	3 ± 0	2000 ± 24	2,000 ± 24 M^-1 s^-1	480 ± 93 M⁻¹ s⁻¹	–	–	–
CC(C)CC(NC(=O)OCc1ccccc1)C(=O)NC(c1ccc(C(=N)N)cc1)P(=O)(Oc1ccccc1)Oc1ccccc1 (mixture of isomers) [Cbz--Leu-(4-AmPhGly)^P (OPh)2]	6.3 ± 0.7	–	0.3	0.3	50 ± 1	1.3 ± 0.1 M⁻¹ s⁻¹	–	–	–	19
N=C(N)c1ccc(C(NC(=O)[C@@H]2CCCN2C(=O)CC(c2ccccc2)c2ccccc2)P(=O)(Oc2ccccc2)Oc2ccccc2)cc1 (some centres unmarked) [3,3-Diphenylpropanoyl-Pro-(4-AmPhGly)^P (OPh)2]	250 ± 8	1830 ± 140	–	–	2660 ± 40	2,660 ± 40 M^-1 s^-1	80,300 ± 368 M^-1 s^-1	–	–	–
C[C@@H](O)[C@H](NC(=O)OCc1ccccc1)C(=O)NC(c1ccc(C(=N)N)cc1)P(=O)(Oc1ccccc1)Oc1ccccc1 (some centres unmarked) [Cbz--Thr-(4-AmPhGly)^P (OPh)2]	2220 ± 40	3	–	–	97	97 ± 2 M⁻¹ s⁻¹	61 ± 3 M⁻¹ s⁻¹	–	–	–
